Reference: ChEMBL document CHEMBL1139986, “Synthesis and biodistribution of 8-iodo-11-(4-methylpiperazino)-5H-dibenzo[b,e][1,4]-diazepine: Iozapine” (Bioorg Med Chem Lett, 2007)

What was measured:
Settings in all cases: in vivo
Thyroid gland [1] = experiment: Biodistribution in rabbit thyroid at 20 MBq after 1 hr; format: ADME, organism-based, Oryctolagus cuniculus
Brain [2] = experiment: Biodistribution in rabbit brain at 20 MBq after 3.0 hrs; format: ADME, organism-based, Oryctolagus cuniculus
Lung [3] = experiment: Biodistribution in rabbit lung at 20 MBq after 2.5 hrs; format: ADME, organism-based, Oryctolagus cuniculus
Lung [4] = experiment: Biodistribution in rabbit lung at 20 MBq after 20.0 hrs; format: ADME, organism-based, Oryctolagus cuniculus
Lung [5] = experiment: Biodistribution in rabbit lung at 20 MBq after 1 hr; format: ADME, organism-based, Oryctolagus cuniculus
Brain [6] = experiment: Biodistribution in rabbit brain at 20 MBq after 1 hr; format: ADME, organism-based, Oryctolagus cuniculus
Thyroid gland [7] = experiment: Biodistribution in rabbit thyroid at 20 MBq after 20.0 hrs; format: ADME, organism-based, Oryctolagus cuniculus
Lung [8] = experiment: Biodistribution in rabbit lung at 20 MBq after 3.0 hrs; format: ADME, organism-based, Oryctolagus cuniculus
Oryctolagus cuniculus [9] = organism: Oryctolagus cuniculus; experiment: Biodistribution in rabbit whole body at 20 MBq after 20.0 hrs; format: ADME, organism-based
Oryctolagus cuniculus [10] = organism: Oryctolagus cuniculus; experiment: Biodistribution in rabbit whole body at 20 MBq; format: ADME, organism-based
Oryctolagus cuniculus [11] = organism: Oryctolagus cuniculus; experiment: Biodistribution in rabbit whole body at 20 MBq after 2.0 hrs; format: ADME, organism-based
Thyroid gland [12] = experiment: Biodistribution in rabbit thyroid at 20 MBq after 1.5 hrs; format: ADME, organism-based, Oryctolagus cuniculus
Lung [13] = experiment: Biodistribution in rabbit lung at 20 MBq; format: ADME, organism-based, Oryctolagus cuniculus
Lung [14] = experiment: Biodistribution in rabbit lung at 20 MBq after 2.0 hrs; format: ADME, organism-based, Oryctolagus cuniculus
Lung [15] = experiment: Biodistribution in rabbit lung at 20 MBq after 0.5 hrs; format: ADME, organism-based, Oryctolagus cuniculus
Oryctolagus cuniculus [16] = organism: Oryctolagus cuniculus; experiment: Biodistribution in rabbit whole body at 20 MBq after 0.5 hrs; format: ADME, organism-based
Brain [17] = experiment: Biodistribution in rabbit brain at 20 MBq after 0.5 hrs; format: ADME, organism-based, Oryctolagus cuniculus
Oryctolagus cuniculus [18] = organism: Oryctolagus cuniculus; experiment: Biodistribution in rabbit whole body at 20 MBq after 2.5 hrs; format: ADME, organism-based
Thyroid gland [19] = experiment: Biodistribution in rabbit thyroid at 20 MBq after 2.5 hrs; format: ADME, organism-based, Oryctolagus cuniculus
Brain [20] = experiment: Biodistribution in rabbit brain at 20 MBq; format: ADME, organism-based, Oryctolagus cuniculus
Oryctolagus cuniculus [21] = organism: Oryctolagus cuniculus; experiment: Biodistribution in rabbit whole body at 20 MBq after 3.0 hrs; format: ADME, organism-based
Lung [22] = experiment: Biodistribution in rabbit lung at 20 MBq after 1.5 hrs; format: ADME, organism-based, Oryctolagus cuniculus
Brain [23] = experiment: Biodistribution in rabbit brain at 20 MBq after 2.5 hrs; format: ADME, organism-based, Oryctolagus cuniculus
Brain [24] = experiment: Biodistribution in rabbit brain at 20 MBq after 20.0 hrs; format: ADME, organism-based, Oryctolagus cuniculus
Brain [25] = experiment: Biodistribution in rabbit brain at 20 MBq after 1.5 hrs; format: ADME, organism-based, Oryctolagus cuniculus
Brain [26] = experiment: Biodistribution in rabbit brain at 20 MBq after 2.0 hrs; format: ADME, organism-based, Oryctolagus cuniculus
Oryctolagus cuniculus [27] = organism: Oryctolagus cuniculus; experiment: Biodistribution in rabbit whole body at 20 MBq after 1.5 hrs; format: ADME, organism-based
Oryctolagus cuniculus [28] = organism: Oryctolagus cuniculus; experiment: Biodistribution in rabbit whole body at 20 MBq after 1 hr; format: ADME, organism-based
Thyroid gland [29] = experiment: Biodistribution in rabbit thyroid at 20 MBq after 3.0 hrs; format: ADME, organism-based, Oryctolagus cuniculus
Thyroid gland [30] = experiment: Biodistribution in rabbit thyroid at 20 MBq after 2.0 hrs; format: ADME, organism-based, Oryctolagus cuniculus
Thyroid gland [31] = experiment: Biodistribution in rabbit thyroid at 20 MBq after 0.5 hrs; format: ADME, organism-based, Oryctolagus cuniculus
Thyroid gland [32] = experiment: Biodistribution in rabbit thyroid at 20 MBq; format: ADME, organism-based, Oryctolagus cuniculus

With `CN1CCN(C2=Nc3cc([123I])ccc3Nc3ccccc32)CC1` [[123I]I-OZAPINE] the Drug uptake (Thyroid gland [1]) was 1.4 %ID, the Drug uptake (Brain [2]) was 1.2 %ID and the Drug uptake (Lung [3]) was 6 %ID. The Drug uptake (Lung [4]) was 2.3 %ID, the Drug uptake (Lung [5]) was 10.4 %ID and the Drug uptake (Brain [6]) was 1.8 %ID. It also gave a Drug uptake (Thyroid gland [7]) of 1.9 %ID, a Drug uptake (Lung [8]) of 6.4 %ID and a Drug uptake (Oryctolagus cuniculus [9]) of 54.6 %ID. It also gave a Drug uptake (Oryctolagus cuniculus [10]) of 100 %ID, a Drug uptake (Oryctolagus cuniculus [11]) of 97.4 %ID and a Drug uptake (Thyroid gland [12]) of 1.3 %ID. The Drug uptake (Lung [13]) was 14.7 %ID, the Drug uptake (Lung [14]) was 7.6 %ID and the Drug uptake (Lung [15]) was 10.7 %ID. It also gave a Drug uptake (Oryctolagus cuniculus [16]) of 98.7 %ID, a Drug uptake (Brain [17]) of 2.2 %ID and a Drug uptake (Oryctolagus cuniculus [18]) of 99.4 %ID. It also gave a Drug uptake (Thyroid gland [19]) of 1.2 %ID, a Drug uptake (Brain [20]) of 2.2 %ID and a Drug uptake (Oryctolagus cuniculus [21]) of 96.9 %ID. The Drug uptake (Lung [22]) was 8.1 %ID, the Drug uptake (Brain [23]) was 1.5 %ID and the Drug uptake (Brain [24]) was 0.7 %ID. For the same compound, the Drug uptake (Brain [25]) was 1.6 %ID, the Drug uptake (Brain [26]) was 1.5 %ID and the Drug uptake (Oryctolagus cuniculus [27]) was 97.7 %ID. It also gave a Drug uptake (Oryctolagus cuniculus [28]) of 95.8 %ID, a Drug uptake (Thyroid gland [29]) of 1.4 %ID and a Drug uptake (Thyroid gland [30]) of 1.4 %ID. The Drug uptake (Thyroid gland [31]) was 1.4 %ID and the Drug uptake (Thyroid gland [32]) was 1.5 %ID.
